Test results: US20020111356A1, “Arylalkylpyridazinones” (MERCK KGAA, priority 1995, published 2002)

Compound: COc1ccc(C2=NN(Cc3ccc([N+](=O)[O-])cc3)C(=O)CC2)cc1OC [Example 1, 2-(4-Nitrobenzyl)-6-(3,4-dimethoxyphenyl) -2,3,4,5-tetrahydropyridazin-3-one]
- melting point: 126 °C
